Experimental data published in patent EP4722228A1, “NEW COMPOUND TARGETING MUSK AND USE THEREOF” (The University of Tokyo, priority 2023, dated 2024).
pKd: −log10 of the molar value. Read-outs that look alike come from different tables or passages of the source. Numbered stars: 1 amine (or outer) side, 2 acyl side, 3 side chain; on linkers, the order of the positions; unused ones are H or OH. Bridge positions count the residues as written; N and C are the ends. Square brackets hold non-standard residues; d marks the D form. Peptide text beside a SMILES is read from it. I, II: the chains in the order shown. * marks the point of attachment. X1 = O=C(CCN1C(=O)CC([*:1])C1=O)NCCOCCOCCOCCOCCOCCOCCOCCOCCOCCOCCOCCNC(=O)CCN1C(=O)CC([*:2])C1=O; X2 = O=C(CCN1C(=O)CC([*:1])C1=O)NCCCOCCOCCOCCCNC(=O)CCN1C(=O)CC([*:2])C1=O; ClAc = O=C(CCl)*

Target: T1, human MuSK (Homo sapiens, UniProt O15146)
T1 construct: DNA corresponding to the extracellular portion (amino acids 1-493) was amplified by a PCR method; made in house; host or cells: Expi293F cells
T1 sequence (O15146 24-493): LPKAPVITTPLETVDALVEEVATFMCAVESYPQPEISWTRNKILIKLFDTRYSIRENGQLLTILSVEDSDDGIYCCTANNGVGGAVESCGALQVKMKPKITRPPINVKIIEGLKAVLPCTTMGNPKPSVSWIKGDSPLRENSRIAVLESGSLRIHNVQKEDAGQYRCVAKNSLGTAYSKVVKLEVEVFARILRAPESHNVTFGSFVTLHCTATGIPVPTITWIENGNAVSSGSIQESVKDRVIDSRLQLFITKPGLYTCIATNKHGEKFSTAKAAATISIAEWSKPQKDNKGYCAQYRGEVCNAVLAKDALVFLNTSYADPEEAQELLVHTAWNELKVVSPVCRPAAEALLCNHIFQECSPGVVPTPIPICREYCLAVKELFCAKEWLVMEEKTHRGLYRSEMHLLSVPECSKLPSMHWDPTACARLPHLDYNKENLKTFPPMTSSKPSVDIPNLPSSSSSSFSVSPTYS
Test: SPR binding activity test to human MuSK (Biacore)
Description: The human MuSK protein (extracellular portion) was prepared as a recombinant protein as follows. Using a Flexi clone (FXC31275, Promega Corporation) encoding Human MuSK isoform 1 precursor (NCBI Reference Sequence: NP_005583.1) as a template, DNA corresponding to the extracellular portion (amino acids 1-493) was amplified by a PCR method. XhoI and EcoRI restriction enzyme recognition sequences were added to both the 5' and 3' ends of the amplified DNA sequence, and these were used for insertion into the multiple cloning site of a pCAG-Neo hIgG1-Fc plasmid (Fujifilm Wako Pure Chemical Corporation). This plasmid (pCAG-Neo hMuSK-Fc) enables expression of a chimeric protein of the secretory human MuSK extracellular portion and human IgG1 Fc (hMuSK-Fc; molecular weight of approximately 200 kDa) in animal cells. In practice, ExpiFectamine 293 reagent (Invitrogen) was used to transfect the pCAG-Neo hMuSK-Fc plasmid into Expi293F cells (Invitrogen), and shaking culture was carried out (for 6 days) in an incubator containing 8% CO2. Next, the culture supernatant was collected, centrifuged, and sterilized by filtration through a 0.22 µm filter. The obtained culture supernatant was subjected to Protein G purification, and finally, a purified hMuSK-Fc sample with 99.96% purity (AKTA-FPLC analysis) was obtained.
The strength of binding between MuSK and the cyclic peptides was evaluated by quantitatively measuring the binding kinetics (binding affinity (dissociation constant) KD) of the cyclic peptides to MuSK immobilized on a sensor chip via an Fc tag, using surface plasmon resonance (SPR).
According to the standard immobilization protocol provided by the manufacturer, Fc-tagged human/mouse/rat MuSK was immobilized on a Protein G chip or a Protein A chip (Cytiva). A running buffer for the monomer/dimer peptides contained 0.010 M phosphate, 0.14 M NaCl, 0.0027 M KCl, 0.05% (v/v) Tween 20, and 0.1% (v/v) DMSO. A running buffer for the monomer/dimer U-bodies contained 0.010 M phosphate, 0.14 M NaCl, 0.0027 M KCl, and 0.05% (v/v) Tween 20. A series of concentrations of each monomer peptide, dimer peptide, monomer U-body, and dimer U-body was injected as analytes. A 1:1 binding fitting analysis was applied using Biacore evaluation software, and ka, kd, and KD values were determined.
Fc-tagged human MuSK was prepared according to the procedure described in Example 1(1). In addition, Fc-tagged mouse MuSK was used by expressing a nucleotide sequence encoding the Fc-tagged mouse MuSK extracellular domain (SEQ ID NO: 34). In addition, Fc-tagged rat MuSK was used as a chimeric protein of rat MuSK and an Fc protein, namely, Recombinant Rat MuSK Fc Chimera Protein (catalog number: 9847-MK-050, R&D Systems).
The affinity of the U-bodies and their complexes obtained as described above for MuSK of human, rat, and mouse was evaluated (binding activity test). The test was carried out according to the procedure described in Example 1(3). However, for the complexes of U-bodies, surface plasmon resonance (SPR) analysis was carried out using a Biacore 8K (Cytiva).

[1] = 25°C, Fc-tagged human MuSK immobilized, monomer peptides, read-out: Binding activity (KD)

| Compound | koff (human MuSK, peptide homodimers) [s⁻¹] | kon (human MuSK, peptide homodimers) [M⁻¹ s⁻¹] | pKd (human MuSK, peptide homodimers, read-out: Kd) | pKd [1] |
| --- | --- | --- | --- | --- |
| I: Ac-C[dY]LPEFSWPESFVLFLRQRQRQLGRGAE-NH2 / II: Ac-C[dY]LPEFSWPESFVLFLRQRQRQLGRGAE-NH2 (linker I:1-II:1 via X1) [MuSK1Ac PEG11 dimer] | 0.001 | 660000 | – | – |
| CC[C@H](C)[C@@H]1NC(=O)[C@H](CC(N)=O)NC(=O)[C@H](C(C)C)NC(=O)[C@H](Cc2ccc(O)cc2)NC(=O)CNC(=O)[C@@H]2CCCN2C(=O)[C@H](CCC(N)=O)NC(=O)[C@H](CC(C)C)NC(=O)[C@H](Cc2ccc(O)cc2)NC(=O)[C@H](Cc2c[nH]c3ccccc23)NC(=O)[C@@H](Cc2ccc(O)cc2)NC(=O)CSC[C@@H](C(=O)N[C@@H](CSC2CC(=O)N(CCC(=O)NCCCOCCOCCOCCCNC(=O)CCN3C(=O)CC(SC[C@H](NC(=O)[C@@H]4CSCC(=O)N[C@H](Cc5ccc(O)cc5)C(=O)N[C@@H](Cc5c[nH]c6ccccc56)C(=O)N[C@@H](Cc5ccc(O)cc5)C(=O)N[C@@H](CC(C)C)C(=O)N[C@@H](CCC(N)=O)C(=O)N5CCC[C@H]5C(=O)NCC(=O)N[C@@H](Cc5ccc(O)cc5)C(=O)N[C@@H](C(C)C)C(=O)N[C@@H](CC(N)=O)C(=O)N[C@@H]([C@@H](C)CC)C(=O)N[C@@H](C(C)C)C(=O)N[C@@H]([C@@H](C)O)C(=O)N[C@@H](CO)C(=O)N[C@@H](Cc5ccc(O)cc5)C(=O)N[C@@H](Cc5c[nH]cn5)C(=O)N4)C(N)=O)C3=O)C2=O)C(N)=O)NC(=O)[C@H](Cc2c[nH]cn2)NC(=O)[C@H](Cc2ccc(O)cc2)NC(=O)[C@H](CO)NC(=O)[C@H]([C@@H](C)O)NC(=O)[C@H](C(C)C)NC1=O (some centres unmarked) [MuSK9 PEG3 dimer] (I: {CH2CO}-[dY]WYLQPGYVNIVTSYHCC-NH2 / II: {CH2CO}-[dY]WYLQPGYVNIVTSYHCC-NH2; linker I:18-II:18 via X2; thioether I:N-I:17, II:N-II:17) | 0.0017 | 780000 | – | – |
| CC[C@H](C)[C@@H]1NC(=O)[C@H](CC(N)=O)NC(=O)[C@H](C(C)C)NC(=O)[C@H](Cc2ccc(O)cc2)NC(=O)CNC(=O)[C@@H]2CCCN2C(=O)[C@H](CCC(N)=O)NC(=O)[C@H](CC(C)C)NC(=O)[C@H](Cc2ccc(O)cc2)NC(=O)[C@H](Cc2c[nH]c3ccccc23)NC(=O)[C@@H](Cc2ccc(O)cc2)NC(=O)CSC[C@@H](C(=O)N[C@@H](CSC2CC(=O)N(CCC(=O)NCCOCCOCCOCCOCCOCCOCCOCCOCCOCCOCCOCCNC(=O)CCN3C(=O)CC(SC[C@H](NC(=O)[C@@H]4CSCC(=O)N[C@H](Cc5ccc(O)cc5)C(=O)N[C@@H](Cc5c[nH]c6ccccc56)C(=O)N[C@@H](Cc5ccc(O)cc5)C(=O)N[C@@H](CC(C)C)C(=O)N[C@@H](CCC(N)=O)C(=O)N5CCC[C@H]5C(=O)NCC(=O)N[C@@H](Cc5ccc(O)cc5)C(=O)N[C@@H](C(C)C)C(=O)N[C@@H](CC(N)=O)C(=O)N[C@@H]([C@@H](C)CC)C(=O)N[C@@H](C(C)C)C(=O)N[C@@H]([C@@H](C)O)C(=O)N[C@@H](CO)C(=O)N[C@@H](Cc5ccc(O)cc5)C(=O)N[C@@H](Cc5c[nH]cn5)C(=O)N4)C(N)=O)C3=O)C2=O)C(N)=O)NC(=O)[C@H](Cc2c[nH]cn2)NC(=O)[C@H](Cc2ccc(O)cc2)NC(=O)[C@H](CO)NC(=O)[C@H]([C@@H](C)O)NC(=O)[C@H](C(C)C)NC1=O (some centres unmarked) [MuSK9 PEG11 dimer] (I: {CH2CO}-[dY]WYLQPGYVNIVTSYHCC-NH2 / II: {CH2CO}-[dY]WYLQPGYVNIVTSYHCC-NH2; linker I:18-II:18 via X1; thioether I:N-I:17, II:N-II:17) | 0.0017 | 440000 | 8.41 | – |
| CC(=O)N[C@H](Cc1ccc(O)cc1)C(=O)N[C@@H](CC(C)C)C(=O)N1CCC[C@H]1C(=O)N[C@@H](CCC(=O)O)C(=O)N[C@@H](Cc1ccccc1)C(=O)N[C@@H](CO)C(=O)N[C@@H](Cc1c[nH]c2ccccc12)C(=O)N1CCC[C@H]1C(=O)N[C@@H](CCC(=O)O)C(=O)N[C@@H](CO)C(=O)N[C@@H](Cc1ccccc1)C(=O)N[C@H](C(=O)N[C@@H](CC(C)C)C(=O)N[C@@H](Cc1ccccc1)C(=O)N[C@@H](CC(C)C)C(=O)N[C@@H](CCCNC(=N)N)C(=O)N[C@@H](CCC(N)=O)C(=O)N[C@@H](CCCNC(=N)N)C(=O)N[C@@H](CCC(N)=O)C(=O)N[C@@H](CCCNC(=N)N)C(=O)N[C@@H](CCC(N)=O)C(=O)N[C@@H](CC(C)C)C(=O)NCC(=O)N[C@@H](CCCNC(=N)N)C(=O)NCC(=O)N[C@@H](C)C(=O)N[C@@H](CCC(=O)O)C(N)=O)C(C)C [MuSK1Ac] (Ac-[dY]LPEFSWPESFVLFLRQRQRQLGRGAE-NH2) | – | – | – | 8.80 |
| CC(C)C[C@H](NC(=O)[C@H](CCC(N)=O)NC(=O)[C@H](CCCNC(=N)N)NC(=O)[C@H](CCC(N)=O)NC(=O)[C@H](CCCNC(=N)N)NC(=O)[C@H](CCC(N)=O)NC(=O)[C@H](CCCNC(=N)N)NC(=O)[C@H](CC(C)C)NC(=O)[C@H](Cc1ccccc1)NC(=O)[C@H](CC(C)C)NC(=O)[C@@H](NC(=O)[C@H](Cc1ccccc1)NC(=O)[C@H](CO)NC(=O)[C@H](CCC(=O)O)NC(=O)[C@@H]1CCCN1C(=O)[C@H](Cc1c[nH]c2ccccc12)NC(=O)[C@H](CO)NC(=O)[C@H](Cc1ccccc1)NC(=O)[C@H](CCC(=O)O)NC(=O)[C@@H]1CCCN1C(=O)[C@H](CC(C)C)NC(=O)[C@@H](Cc1ccc(O)cc1)NC(=O)CCl)C(C)C)C(=O)NCC(=O)N[C@@H](CCCNC(=N)N)C(=O)NCC(=O)N[C@@H](C)C(=O)N[C@@H](CCC(=O)O)C(N)=O [MuSK1] (ClAc-[dY]LPEFSWPESFVLFLRQRQRQLGRGAE-NH2) | – | – | – | 8.66 |
| CC(C)C[C@@H]1NC(=O)[C@H](CO)NC(=O)[C@H](C)NC(=O)[C@H](C(C)C)NC(=O)[C@H](C(C)C)NC(=O)[C@H](CC(N)=O)NC(=O)[C@H]([C@@H](C)O)NC(=O)[C@H](Cc2c[nH]cn2)NC(=O)[C@H](Cc2ccc(O)cc2)NC(=O)[C@H](CO)NC(=O)[C@@H]2CCCN2C(=O)[C@@H](Cc2ccc(O)cc2)NC(=O)CSC[C@@H](C(=O)N[C@@H](CSC2CC(=O)N(CCC(=O)NCCCOCCOCCOCCCNC(=O)CCN3C(=O)CC(SC[C@H](NC(=O)[C@@H]4CSCC(=O)N[C@H](Cc5ccc(O)cc5)C(=O)N5CCC[C@H]5C(=O)N[C@@H](CO)C(=O)N[C@@H](Cc5ccc(O)cc5)C(=O)N[C@@H](Cc5c[nH]cn5)C(=O)N[C@@H]([C@@H](C)O)C(=O)N[C@@H](CC(N)=O)C(=O)N[C@@H](C(C)C)C(=O)N[C@@H](C(C)C)C(=O)N[C@@H](C)C(=O)N[C@@H](CO)C(=O)N[C@@H](CC(C)C)C(=O)N[C@@H](CCCCN)C(=O)N[C@@H](CCCNC(=N)N)C(=O)N4)C(N)=O)C3=O)C2=O)C(N)=O)NC(=O)[C@H](CCCNC(=N)N)NC(=O)[C@H](CCCCN)NC1=O (some centres unmarked) [MuSK7 PEG3 dimer] (I: {CH2CO}-[dY]PSYHTNVVASLKRCC-NH2 / II: {CH2CO}-[dY]PSYHTNVVASLKRCC-NH2; linker I:16-II:16 via X2; thioether I:N-I:15, II:N-II:15) | 0.00034 | 540000 | – | – |
